Species on record: Rattus norvegicus
Assay: Open TG-GATES - Regimen: Single
Format: toxicity, organism-based, Sprague-Dawley
Set-up: regimen Single, gender Male, age 6 weeks
Conditions: in vivo, po, 60 mg/kg, route gavage, dose level Low; for Bas / Eos / Lym / MCHC / MCV / Mono / Neu / RBC / Ret / WBC: tissue Blood; for KIDNEY_L / KIDNEY_R / KIDNEY_TOTAL: tissue Kidney; for LIVER: tissue Liver; for ALP / AST / CRE / DBIL / GLC / IP / K / LDH / Na / PL / RALB / TBIL / TC / TP / gamma-GTP: tissue Plasma

Question: Which Bas (3 h) does the source give for CS(=O)(=O)O.Cc1ccc(NC(=O)c2ccc(CN3CCN(C)CC3)cc2)cc1Nc1nccc(-c2cccnc2)n1 [IMATINIB MESYLATE] here?
Answer: Its Bas is 0%.

Question: And the Eos (3 h)?
Answer: The Eos was 1%.

Question: What about the Lym (3 h) of the same molecule?
Answer: The Lym was 73.4%.

Question: What about the MCHC (3 h) of the same molecule?
Answer: The MCHC was 32.7%.

Question: And the MCV (3 h)?
Answer: The MCV was 63.2 fL.

Question: What about the Mono (3 h) of the same molecule?
Answer: The Mono was 3%.

Question: And the Neu (3 h)?
Answer: Its Neu is 21.6%.

Question: What about the RBC (3 h) of the same molecule?
Answer: Its RBC is 603 x10_4/ul.

Question: What about the Ret (3 h) of the same molecule?
Answer: The Ret was 9.5%.

Question: And the WBC (3 h)?
Answer: The WBC was 109.9 x10_2/uL.

Question: What about the KIDNEY_L (3 h) of the same molecule?
Answer: Its KIDNEY_L is 0.9 g.

Question: What about the KIDNEY_R (3 h) of the same molecule?
Answer: Its KIDNEY_R is 0.9 g.

Question: And the KIDNEY_TOTAL (3 h)?
Answer: The KIDNEY_TOTAL was 1.7 g.

Question: What about the LIVER (3 h) of the same molecule?
Answer: The LIVER was 9.3 g.

Question: And the ALP (3 h)?
Answer: Its ALP is 1755.4 IU/L.

Question: What about the AST (3 h) of the same molecule?
Answer: Its AST is 81.6 IU/L.

Question: And the CRE (3 h)?
Answer: Its CRE is 0.2 mg/dL.

Question: And the DBIL (3 h)?
Answer: Its DBIL is 0.008 mg/dL.

Question: And the GLC (3 h)?
Answer: The GLC was 187 mg/dL.

Question: What about the IP (3 h) of the same molecule?
Answer: Its IP is 8.6 mg/dL.

Question: And the K (3 h)?
Answer: The K was 4.1 meq/L.

Question: What about the LDH (3 h) of the same molecule?
Answer: The LDH was 243.6 IU/L.

Question: What about the Na (3 h) of the same molecule?
Answer: Its Na is 142.4 meq/L.

Question: And the PL (3 h)?
Answer: The PL was 150.2 mg/dL.

Question: What about the RALB (3 h) of the same molecule?
Answer: Its RALB is 4 g/dL.

Question: What about the TBIL (3 h) of the same molecule?
Answer: The TBIL was 0.03 mg/dL.

Question: And the TC (3 h)?
Answer: The TC was 82.8 mg/dL.

Question: What about the TP (3 h) of the same molecule?
Answer: The TP was 5.5 g/dL.

Question: What about the gamma-GTP (3 h) of the same molecule?
Answer: The gamma-GTP was 0.8 IU/L.

Question: And the Bas (6 h)?
Answer: Its Bas is 0%.

Question: And the Eos (6 h)?
Answer: Its Eos is 0.8%.

Question: What about the Lym (6 h) of the same molecule?
Answer: Its Lym is 80.6%.

Question: And the MCHC (6 h)?
Answer: Its MCHC is 32.8%.

Question: What about the MCV (6 h) of the same molecule?
Answer: Its MCV is 63.4 fL.

Question: And the Mono (6 h)?
Answer: The Mono was 2%.

Question: And the Neu (6 h)?
Answer: The Neu was 16.2%.

Question: And the RBC (6 h)?
Answer: The RBC was 618.6 x10_4/ul.

Question: What about the Ret (6 h) of the same molecule?
Answer: The Ret was 9.5%.

Question: What about the WBC (6 h) of the same molecule?
Answer: The WBC was 104.6 x10_2/uL.

Question: What about the KIDNEY_L (6 h) of the same molecule?
Answer: The KIDNEY_L was 0.9 g.

Question: What about the KIDNEY_R (6 h) of the same molecule?
Answer: Its KIDNEY_R is 0.9 g.

Question: And the KIDNEY_TOTAL (6 h)?
Answer: Its KIDNEY_TOTAL is 1.8 g.

Question: And the LIVER (6 h)?
Answer: The LIVER was 8.4 g.

Question: And the ALP (6 h)?
Answer: The ALP was 1520 IU/L.

Question: What about the AST (6 h) of the same molecule?
Answer: The AST was 77.6 IU/L.

Question: And the CRE (6 h)?
Answer: Its CRE is 0.2 mg/dL.

Question: What about the DBIL (6 h) of the same molecule?
Answer: The DBIL was 0.008 mg/dL.

Question: What about the GLC (6 h) of the same molecule?
Answer: The GLC was 190.8 mg/dL.

Question: And the IP (6 h)?
Answer: The IP was 9.4 mg/dL.

Question: What about the K (6 h) of the same molecule?
Answer: The K was 4.2 meq/L.

Question: And the LDH (6 h)?
Answer: The LDH was 238 IU/L.

Question: What about the Na (6 h) of the same molecule?
Answer: The Na was 140.7 meq/L.

Question: What about the PL (6 h) of the same molecule?
Answer: The PL was 152.8 mg/dL.

Question: What about the RALB (6 h) of the same molecule?
Answer: Its RALB is 4 g/dL.

Question: What about the TBIL (6 h) of the same molecule?
Answer: Its TBIL is 0.03 mg/dL.

Question: And the TC (6 h)?
Answer: Its TC is 82.4 mg/dL.

Question: What about the TP (6 h) of the same molecule?
Answer: The TP was 5.4 g/dL.

Question: What about the gamma-GTP (6 h) of the same molecule?
Answer: The gamma-GTP was 0.7 IU/L.

Question: And the Bas (9 h)?
Answer: Its Bas is 0%.

Question: What about the Eos (9 h) of the same molecule?
Answer: The Eos was 1%.

Question: What about the Lym (9 h) of the same molecule?
Answer: The Lym was 73.8%.

Question: What about the MCHC (9 h) of the same molecule?
Answer: The MCHC was 33%.

Question: What about the MCV (9 h) of the same molecule?
Answer: The MCV was 63.2 fL.

Question: And the Mono (9 h)?
Answer: Its Mono is 2.2%.

Question: What about the Neu (9 h) of the same molecule?
Answer: Its Neu is 22.6%.

Question: And the RBC (9 h)?
Answer: Its RBC is 613.6 x10_4/ul.

Question: And the Ret (9 h)?
Answer: The Ret was 8.7%.

Question: What about the WBC (9 h) of the same molecule?
Answer: The WBC was 94.3 x10_2/uL.

Question: And the KIDNEY_L (9 h)?
Answer: Its KIDNEY_L is 0.8 g.

Question: What about the KIDNEY_R (9 h) of the same molecule?
Answer: Its KIDNEY_R is 0.9 g.

Question: And the KIDNEY_TOTAL (9 h)?
Answer: Its KIDNEY_TOTAL is 1.7 g.

Question: And the LIVER (9 h)?
Answer: Its LIVER is 8.2 g.

Question: What about the ALP (9 h) of the same molecule?
Answer: The ALP was 1712.2 IU/L.

Question: And the AST (9 h)?
Answer: The AST was 75.4 IU/L.

Question: What about the CRE (9 h) of the same molecule?
Answer: Its CRE is 0.2 mg/dL.

Question: What about the DBIL (9 h) of the same molecule?
Answer: Its DBIL is 0.006 mg/dL.

Question: And the GLC (9 h)?
Answer: The GLC was 183.2 mg/dL.

Question: And the IP (9 h)?
Answer: The IP was 9.4 mg/dL.

Question: And the K (9 h)?
Answer: Its K is 4 meq/L.

Question: What about the LDH (9 h) of the same molecule?
Answer: The LDH was 176.4 IU/L.

Question: And the Na (9 h)?
Answer: The Na was 140 meq/L.

Question: And the PL (9 h)?
Answer: The PL was 137.4 mg/dL.

Question: And the RALB (9 h)?
Answer: Its RALB is 4 g/dL.

Question: What about the TBIL (9 h) of the same molecule?
Answer: Its TBIL is 0.016 mg/dL.

Question: What about the TC (9 h) of the same molecule?
Answer: Its TC is 77.8 mg/dL.

Question: What about the TP (9 h) of the same molecule?
Answer: Its TP is 5.5 g/dL.

Question: What about the gamma-GTP (9 h) of the same molecule?
Answer: Its gamma-GTP is 0.7 IU/L.

Question: What about the Bas (24 h) of the same molecule?
Answer: The Bas was 0%.

Question: And the Eos (24 h)?
Answer: The Eos was 0.6%.

Question: And the Lym (24 h)?
Answer: Its Lym is 85%.

Question: What about the MCHC (24 h) of the same molecule?
Answer: Its MCHC is 33.1%.

Question: What about the MCV (24 h) of the same molecule?
Answer: The MCV was 64.4 fL.

Question: And the Mono (24 h)?
Answer: Its Mono is 2.4%.

Question: And the Neu (24 h)?
Answer: The Neu was 11.6%.

Question: And the RBC (24 h)?
Answer: The RBC was 590.4 x10_4/ul.

Question: And the Ret (24 h)?
Answer: The Ret was 8.2%.

Question: What about the WBC (24 h) of the same molecule?
Answer: Its WBC is 87.7 x10_2/uL.

Question: And the KIDNEY_L (24 h)?
Answer: Its KIDNEY_L is 0.9 g.

Question: What about the KIDNEY_R (24 h) of the same molecule?
Answer: The KIDNEY_R was 0.9 g.

Question: What about the KIDNEY_TOTAL (24 h) of the same molecule?
Answer: Its KIDNEY_TOTAL is 1.8 g.

Question: And the LIVER (24 h)?
Answer: The LIVER was 10 g.

Question: And the ALP (24 h)?
Answer: The ALP was 1709.8 IU/L.

Question: And the AST (24 h)?
Answer: The AST was 77.2 IU/L.

Question: What about the CRE (24 h) of the same molecule?
Answer: Its CRE is 0.2 mg/dL.

Question: What about the DBIL (24 h) of the same molecule?
Answer: Its DBIL is 0.002 mg/dL.

Question: And the GLC (24 h)?
Answer: The GLC was 186.4 mg/dL.

Question: And the IP (24 h)?
Answer: The IP was 7.6 mg/dL.

Question: What about the K (24 h) of the same molecule?
Answer: Its K is 4 meq/L.

Question: What about the LDH (24 h) of the same molecule?
Answer: The LDH was 197 IU/L.

Question: And the Na (24 h)?
Answer: Its Na is 142.7 meq/L.

Question: What about the PL (24 h) of the same molecule?
Answer: Its PL is 162.8 mg/dL.

Question: What about the RALB (24 h) of the same molecule?
Answer: Its RALB is 4.1 g/dL.

Question: What about the TBIL (24 h) of the same molecule?
Answer: Its TBIL is 0.006 mg/dL.

Question: What about the TC (24 h) of the same molecule?
Answer: Its TC is 85.4 mg/dL.

Question: And the TP (24 h)?
Answer: The TP was 5.7 g/dL.
